Data reported in PubChem BioAssay (NCI).
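1) Cells in 96-well plates. 2) Compound, 48 h, 5 concentrations. 3) Linear interpolation between surrounding doses. 4) Unreached endpoint = highest concentration. Abbreviation: GI50, concentration required for 50% inhibition of growth. TGI is the concentration that stops growth completely.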

Columns and labels:
Test in all cases: NCI-60 cell line screen, 48 h
[1] = test system: A549 NSCLC
[2] = test system: BT-549 breast
[3] = test system: CAKI-1 renal
[4] = test system: HOP-62 NSCLC
[5] = test system: HS 578T breast
[6] = test system: MALME-3M melanoma
[7] = test system: MOLT-4 leukemia
[8] = test system: NCI-H226 lung
[9] = test system: NCI-H522 lung
[10] = test system: SF-268 CNS

Compound	GI50 [1] [µM]	TGI [1] [µM]	GI50 [2] [µM]	TGI [2] [µM]	GI50 [3] [µM]	TGI [3] [µM]	GI50 [4] [µM]	TGI [4] [µM]	GI50 [5] [µM]	TGI [5] [µM]	GI50 [6] [µM]	TGI [6] [µM]	GI50 [7] [µM]	TGI [7] [µM]	GI50 [8] [µM]	TGI [8] [µM]	GI50 [9] [µM]	TGI [9] [µM]	GI50 [10] [µM]	TGI [10] [µM]
Cc1nc2sc(C(=O)Nc3cccc(Cl)c3C)c(N)c2cc1C(O)c1ccccc1 (stereo not given)	0.0614	> 50.1	0.124	3	0.0487	8.46	0.0497	16.1	0.0239	0.497	0.0536	18.5	0.0673	19.7	1.19	22.8	0.0278	1.77	0.318	11.7
CCOC(=O)CC1C(CNC(=O)NC)OC(n2cnc3c(NC(=O)Nc4ccccc4)ncnc32)C1O[Si](C)(C)C(C)(C)C (stereo not given)	4.18	19.2	> 100	> 100	29.7	> 100	8.96	26.4	3.6	53.6	10.3	> 100	2.39	23.3	> 100	> 100	4.36	85.7	6.53	27
